{"source": "paper PMC12362764", "about": "“Novel Cyano‐Artemisinin Dimer ZQJ29 Targets PARP1 to Induce Ferroptosis in Pancreatic Cancer Treatment” (Advanced Science, 2025)", "key": {"PANC-1 [1]": {"test_system": "PANC-1", "experiment": "CCK-8 cytotoxicity assay, PANC-1", "type": "cell-based", "description": "(§1) Cell viability was evaluated using the Cell Counting Kit‐8 (Beyotime, Shanghai, China) assay. Cells were seeded in 96‐well plates at a density of 2×10^3 cells to allow for attachment. After treatment with ZQJ29 (0.001, 0.01, 0.1, 10, and 25 µM) for 24, 48, and 72 h, 10 µL of CCK‐8 solution was added to each well and incubated for 1 h. The optical density values were then measured at 450 nm using a multifunctional enzyme‐linked immunosorbent assay reader (Tecan, Spark, Switzerland)."}, "H1975": {"test_system": "H1975", "experiment": "CCK-8 cytotoxicity assay, H1975", "type": "cell-based", "conditions": "Homo sapiens, NCI-H1975, 72 h", "description": "as §1"}, "HeLa": {"test_system": "HeLa", "experiment": "CCK-8 cytotoxicity assay, HeLa", "type": "cell-based", "conditions": "Homo sapiens, 72 h", "description": "as §1"}, "HEK-293T": {"test_system": "HEK-293T", "experiment": "CCK-8 cytotoxicity assay, HEK-293T (normal cell line)", "type": "cell-based", "conditions": "Homo sapiens, 72 h", "description": "as §1"}, "THLE-2": {"test_system": "THLE-2", "experiment": "CCK-8 cytotoxicity assay, THLE-2 (normal cell line)", "type": "cell-based", "conditions": "Homo sapiens, 72 h", "description": "as §1"}, "PANC-1 and KP4 cells [2]": {"test_system": "PANC-1 and KP4 cells", "experiment": "Wound healing (cell migration) assay", "type": "cell-based", "conditions": "0, 1, 2.5, 5 µM; 12 and 24 h", "description": "PANC‐1 and KP4 cells were cultured in 6‐well plates until complete confluence was reached. A “scratch” or “wound” was made with a sterile 10 µL pipette tip. Following this, the cells were treated with varying concentrations of ZQJ29 (0, 1, 2.5, and 5 µM). After 12 and 24 h, migration activity were observed and captured using an inverted EVOS microscope (Thermo Fisher Scientific, USA). The number of migrated cells were then quantified."}, "PANC-1 and KP4 cells [3]": {"test_system": "PANC-1 and KP4 cells", "experiment": "Ferroptosis markers (lipid ROS, iron, MDA, GSH)", "type": "cell-based", "conditions": "0, 1, 2.5, 5 µM, 24 h of ZQJ29 treatment"}, "PANC-1 and KP4 cells [4]": {"test_system": "PANC-1 and KP4 cells", "experiment": "CCK-8 viability after PARP1 siRNA knockdown", "type": "cell-based", "conditions": "PARP1-siRNA transfection, ZQJ29 1 µM, 24 h", "description": "as §1\nA short interfering RNA (siRNA) targeting human PARP1 was designed and synthesized by GenePharma (Shanghai, China). The sequences of the siRNAs are detailed in Table S5 (Supporting Information). PANC‐1 and KP4 Cells were cultured in six‐well plates until they reached 70% confluence. The cells were then transfected with 50 nM siRNA‐PARP1 or a negative control with Lipofectamine 2000 (Thermo Fisher, USA) for 24 h, according to the manufacturer's instructions."}, "PANC-1 [5]": {"test_system": "PANC-1", "experiment": "Label-free proteomics", "type": "cell-based", "conditions": "PANC-1, 5 µM ZQJ29 vs DMSO, 24 h", "description": "PANC‐1 cells were inoculated into 6‐well plates at ≈2 × 10^5 cells per well and grown for 24 h. After this period, the cells were treated with 5 µM ZQJ29 and an equal volume of solvent (DMSO) for an additional 24 h. Following treatment, the cells were removed from the incubator, and the medium was aspirated and discarded. The cells were washed twice with pre‐cooled PBS, which was then discarded. Next, 30 µL of RIPA lysis buffer containing PMSF (Yeasen, Shanghai, China) was added, and the cells were scraped off quickly using a cell scraper. The cell suspension was collected in 1.5 mL EP tubes and placed on ice. Cells were homogenized using ultrasound (3s × 15 times at 4s intervals), and the mixture was kept on ice for 10–15 min until the foam subsided. The centrifuge was pre‐cooled to 4 °C and centrifuged at 12 000 rpm for 15 min. The supernatant was collected to obtain the protein.\nFor each group of 3 samples, the protein concentration was determined by the BCA Protein Assay Kit (Beyotime, Shanghai, China). A total of 100 µg of protein was aspirated from each group. Five times the volume of acetone/ethanol/formic acid (50:50:0.1, v/v) was added, and the mixture was thoroughly mixed before allowing the protein to precipitate overnight at −20 °C. […] Finally, the sample was analyzed using instrumental LC‐MS (Agilent, USA)."}, "PARP1": {"target": "PARP1 (Homo sapiens, UniProt P09874)", "sequence (P09874 whole entry)": "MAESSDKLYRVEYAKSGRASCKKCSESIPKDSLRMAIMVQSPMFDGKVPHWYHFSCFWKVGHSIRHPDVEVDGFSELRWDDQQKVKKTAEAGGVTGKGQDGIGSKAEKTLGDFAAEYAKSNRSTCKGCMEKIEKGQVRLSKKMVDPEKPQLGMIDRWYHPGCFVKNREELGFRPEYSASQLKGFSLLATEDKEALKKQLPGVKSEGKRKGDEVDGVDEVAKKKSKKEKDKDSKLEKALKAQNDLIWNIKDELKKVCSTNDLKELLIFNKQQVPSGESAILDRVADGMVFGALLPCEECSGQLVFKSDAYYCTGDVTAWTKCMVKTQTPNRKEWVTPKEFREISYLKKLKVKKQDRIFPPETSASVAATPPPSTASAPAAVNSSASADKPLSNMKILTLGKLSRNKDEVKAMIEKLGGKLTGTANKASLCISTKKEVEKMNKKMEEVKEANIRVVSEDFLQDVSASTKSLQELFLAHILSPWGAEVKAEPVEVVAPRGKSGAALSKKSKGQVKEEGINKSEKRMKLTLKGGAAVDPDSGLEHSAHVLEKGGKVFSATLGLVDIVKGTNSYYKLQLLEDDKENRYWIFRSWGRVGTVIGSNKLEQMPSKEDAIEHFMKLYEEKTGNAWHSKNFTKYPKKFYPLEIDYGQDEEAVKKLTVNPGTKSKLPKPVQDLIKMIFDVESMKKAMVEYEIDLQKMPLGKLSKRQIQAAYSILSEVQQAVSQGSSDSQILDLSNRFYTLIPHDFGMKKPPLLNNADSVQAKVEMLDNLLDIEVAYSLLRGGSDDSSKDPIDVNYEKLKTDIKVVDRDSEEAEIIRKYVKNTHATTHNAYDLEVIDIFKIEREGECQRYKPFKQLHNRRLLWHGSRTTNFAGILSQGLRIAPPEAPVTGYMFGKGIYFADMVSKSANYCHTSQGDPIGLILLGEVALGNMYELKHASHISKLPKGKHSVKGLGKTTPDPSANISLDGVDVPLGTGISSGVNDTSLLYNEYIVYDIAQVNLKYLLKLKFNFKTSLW", "experiment": "SPR analysis (Biacore S200)", "type": "binding", "parameters": "purchased Sino Biological 11040‐H08B", "conditions": "25 °C, Steady State Affinity model", "description": "The interaction between ZQJ29 and PARP1 was assessed by SPR with the Biacore S200 system at 25 °C (Cytiva). Recombinant human PARP1 protein (Sino Biological, 11040‐H08B) was immobilized on an activated carboxymethylated 5 (CM5) sensor chip using the amine coupling method. Gradient concentrations of 3 were injected at a flow rate of 40 µL min^−1 in a running buffer [5% (v/v) DMSO in PBS·P]. The results were analyzed with the Biacore evaluation software (S200 version). Data were fitted to the Steady State Affinity model, and kinetic parameters were derived."}}, "data": [{"smiles": "CC1CCC2C(C)C(OCCN(C#N)CCOC3OC4OC5(C)CCC6C(C)CCC(C3C)C46OO5)OC3OC4(C)CCC1C32OO4", "note": "(centres unmarked) [ZQJ29]", "values": [{"measurement": "IC50", "setting": "PANC-1 [1]; Homo sapiens, PANC-1, 72 h, average of 3 parallel tests", "result": "120 ± 30", "unit": "nM"}, {"measurement": "increased cytotoxicity compared to OXA and DHA", "setting": "PANC-1 [1]; PANC-1 cells", "result": "≈ 100 fold"}, {"measurement": "IC50", "setting": "H1975", "result": "2190 ± 113", "unit": "nM"}, {"measurement": "IC50", "setting": "HeLa", "result": "1280 ± 289", "unit": "nM"}, {"measurement": "IC50", "setting": "HEK-293T", "result": "> 10000", "unit": "nM"}, {"measurement": "IC50", "setting": "THLE-2", "result": "> 10000", "unit": "nM"}, {"measurement": "migration abilities", "setting": "PANC-1 and KP4 cells [2]", "result": "impaired"}, {"measurement": "intracellular ROS, iron, MDA and GSH levels", "setting": "PANC-1 and KP4 cells [3]", "result": "increased ROS release, iron accumulation, MDA production, and GSH depletion"}, {"measurement": "proliferation inhibition by ZQJ29 upon PARP1 knockdown", "setting": "PANC-1 and KP4 cells [4]", "result": "markedly reversed"}, {"measurement": "PARP1 protein level (proteomics)", "setting": "PANC-1 [5]", "result": "prominently down‐regulated"}, {"measurement": "Kd", "setting": "PARP1", "result": 2860, "unit": "nM"}]}]}
